US20240141294A1, “CGMP COMPLIANT PRODUCTION AND EXPANSION OF PLASMACYTOID DENDRITIC CELLS FROM HEMATOPOIETIC STEM AND PROGENITOR CELLS” (AARHUS UNIVERSITET, priority 2021, published 2024)

Tested on: HSPC-pDCs
Assay: RNA-sequencing of HSPC-pDCs generated with or without ascorbic acid
Type: cell-based, human
Conditions: for Log2 (+AA/−AA) / +AA FPKM: Table 2
Method: HSPCs were thawed and 1×10^5 cells were seeded in DC medium with or without supplementation of ascorbic acid (AA). Following 16 days of differentiation with or without AA in the medium, pDCs were isolated by immunomagnetic depletion of non-pDCs, and HSPCs-pDCs were then primed for 72 hours with IFN-β/γ. Following priming, HSPC-pDCs were stored in RNAprotect Cell Reagent (Qiagen) at −80° C. until total RNA was extracted using the RNeasy Plus Micro Kit (Qiagen), which efficiently eliminates genomic DNA without the need for DNase treatment. The total RNA was send to BGI Europe for RNA-seq. Here, a non-stranded & polyA-selected mRNA library was prepared from the total RNA and subjected to PE100 sequencing using the BGISEQ platform. The samples generated on average about 4.84 Gb bases per sample. Low quality reads were filtered and the remaining reads were mapped to the genome with an average mapping ratio with the reference genome at 92.74%, the average gene mapping ratio at 79.90%. In total, 18,412 genes were identified. Gene expression was calculated based on the reads, differentially expressed genes and gene ontology analyses were analyzed on BGI's software analysis platform Dr. Tom. HSPCs were thawed and 1×10^5 cells were seeded in DC medium with or without supplementation of ascorbic acid (AA). Following 16 days of differentiation with or without AA in the medium, pDCs were isolated by immunomagnetic depletion of non-pDCs, and HSPCs-pDCs were then primed for 72 hours with IFN-β/γ. Following priming, HSPC-pDCs were stored in RNAprotect Cell Reagent (Qiagen) at −80 degrees until total RNA was extracted using the RNeasy Plus Micro Kit (Qiagen), which efficiently eliminates genomic DNA without the need for DNase treatment. The total RNA was send to BGI Europe for RNA-seq. Here, a non-stranded & polyA-selected mRNA library was prepared from the total RNA and subjected to PE100 sequencing using the BGISEQ platform. The samples generated on average about 4.84 Gb bases per sample. Low quality reads were filtered and the remaining reads were mapped to the genome with an average mapping ratio with the reference genome at 92.74%, the average gene mapping ratio at 79.90%. In total, 18,412 genes were identified. Gene expression was calculated based on the reads, differentially expressed genes and gene ontology analyses were analyzed on BGI's software analysis platform Dr. Tom.

## O=C1O[C@H]([C@@H](O)CO)C(O)=C1O [ascorbic acid]
Gene ACP5, Qvalue 4.83E−10
  Log2 (+AA/−AA): 2.221
Gene ACP5, −AA FPKM 31.073
  +AA FPKM: 146.980 FPKM
Gene ADAMDEC1, Qvalue 0.0010135
  Log2 (+AA/−AA): 3.569
Gene ADAMDEC1, −AA FPKM 1.127
  +AA FPKM: 13.453 FPKM
Gene ASS1, Qvalue 2.41E−08
  Log2 (+AA/−AA): 5.358
Gene ASS1, −AA FPKM 0.477
  +AA FPKM: 19.263 FPKM
Gene ATF5, Qvalue 2.01E−54
  Log2 (+AA/−AA): 2.398
Gene ATF5, −AA FPKM 24.183
  +AA FPKM: 129.867 FPKM
Gene AXL, Qvalue 9.98E−29
  Log2 (+AA/−AA): 4.406
Gene AXL, −AA FPKM 1.033
  +AA FPKM: 21.903 FPKM
Gene C3, Qvalue 0.001547846
  Log2 (+AA/−AA): 3.579
Gene C3, −AA FPKM 1.227
  +AA FPKM: 14.750 FPKM
Gene CCL2, Qvalue 5.74E−06
  Log2 (+AA/−AA): 4.646
Gene CCL2, −AA FPKM 7.183
  +AA FPKM: 179.503 FPKM
Gene CCL13, Qvalue 8.06E−14
  Log2 (+AA/−AA): 6.195
Gene CCL13, −AA FPKM 0.197
  +AA FPKM: 14.483 FPKM
Gene CD14, Qvalue 2.98E−25
  Log2 (+AA/−AA): 4.038
Gene CD14, −AA FPKM 2.797
  +AA FPKM: 46.303 FPKM
Gene CD209, Qvalue 9.84E−27
  Log2 (+AA/−AA): 2.774
Gene CD209, −AA FPKM 2.460
  +AA FPKM: 16.407 FPKM
Gene CES1, Qvalue 0.03002647
  Log2 (+AA/−AA): 3.002
Gene CES1, −AA FPKM 6.620
  +AA FPKM: 52.940 FPKM
Gene CFB, Qvalue 2.09E−06
  Log2 (+AA/−AA): 3.059
Gene CFB, −AA FPKM 1.257
  +AA FPKM: 10.533 FPKM
Gene CHI3L1, Qvalue 0.024834793
  Log2 (+AA/−AA): 2.178
Gene CHI3L1, −AA FPKM 108.107
  +AA FPKM: 495.927 FPKM
Gene CTSL, Qvalue 0.031636618
  Log2 (+AA/−AA): 2.759
Gene CTSL, −AA FPKM 3.140
  +AA FPKM: 21.410 FPKM
Gene CXCL10, Qvalue 1.78E−06
  Log2 (+AA/−AA): 2.352
Gene CXCL10, −AA FPKM 36.100
  +AA FPKM: 183.493 FPKM
Gene DEFA1, Qvalue 6.38E−05
  Log2 (+AA/−AA): 5.728
Gene DEFA1, −AA FPKM 19.907
  +AA FPKM: 1047.070 FPKM
Gene DEFA3, Qvalue 0.001704486
  Log2 (+AA/−AA): 4.431
Gene DEFA3, −AA FPKM 27.457
  +AA FPKM: 593.480 FPKM
Gene DEFA4, Qvalue 1.65E−08
  Log2 (+AA/−AA): 4.651
Gene DEFA4, −AA FPKM 39.303
  +AA FPKM: 975.213 FPKM
Gene DNASE1L3, Qvalue 5.63E−10
  Log2 (+AA/−AA): 2.459
Gene DNASE1L3, −AA FPKM 1.893
  +AA FPKM: 10.470 FPKM
Gene FPR3, Qvalue 3.93E−08
  Log2 (+AA/−AA): 2.200
Gene FPR3, −AA FPKM 10.853
  +AA FPKM: 50.280 FPKM
Gene GIMAP4, Qvalue 3.03E−09
  Log2 (+AA/−AA): 2.409
Gene GIMAP4, −AA FPKM 3.960
  +AA FPKM: 20.933 FPKM
Gene GPNMB, Qvalue 4.79E−08
  Log2 (+AA/−AA): 4.418
Gene GPNMB, −AA FPKM 4.760
  +AA FPKM: 101.280 FPKM
Gene GZMB, Qvalue 3.57E−07
  Log2 (+AA/−AA): 3.081
Gene GZMB, −AA FPKM 3.773
  +AA FPKM: 31.393 FPKM
Gene HSD11B1, Qvalue 0.044667374
  Log2 (+AA/−AA): 3.736
Gene HSD11B1, −AA FPKM 1.240
  +AA FPKM: 16.590 FPKM
Gene IFI27, Qvalue 3.56E−04
  Log2 (+AA/−AA): 4.638
Gene IFI27, −AA FPKM 14.857
  +AA FPKM: 376.697 FPKM
Gene IFI44L, Qvalue 1.82E−05
  Log2 (+AA/−AA): 2.109
Gene IFI44L, −AA FPKM 17.913
  +AA FPKM: 81.280 FPKM
Gene IL4I1, Qvalue 5.63E−07
  Log2 (+AA/−AA): 2.589
Gene IL4I1, −AA FPKM 4.657
  +AA FPKM: 28.410 FPKM
Gene IL32, Qvalue 2.92E−23
  Log2 (+AA/−AA): 2.353
Gene IL32, −AA FPKM 5.960
  +AA FPKM: 30.560 FPKM
Gene KYNU, Qvalue 2.56E−05
  Log2 (+AA/−AA): 2.148
Gene KYNU, −AA FPKM 6.050
  +AA FPKM: 26.750 FPKM
Gene LAG3, Qvalue 8.08E−20
  Log2 (+AA/−AA): 3.418
Gene LAG3, −AA FPKM 2.770
  +AA FPKM: 29.953 FPKM
Gene LCN2, Qvalue 1.39E−54
  Log2 (+AA/−AA): 5.282
Gene LCN2, −AA FPKM 0.930
  +AA FPKM: 35.670 FPKM
Gene LILRB4, Qvalue 3.21E−22
  Log2 (+AA/−AA): 3.922
Gene LILRB4, −AA FPKM 1.363
  +AA FPKM: 19.833 FPKM
Gene MAFB, Qvalue 0.00100367
  Log2 (+AA/−AA): 3.471
Gene MAFB, −AA FPKM 1.023
  +AA FPKM: 11.443 FPKM
Gene MMP14, Qvalue 1.27E−18
  Log2 (+AA/−AA): 4.564
Gene MMP14, −AA FPKM 1.470
  +AA FPKM: 34.870 FPKM
Gene MPEG1, Qvalue 3.81E−23
  Log2 (+AA/−AA): 2.325
Gene MPEG1, −AA FPKM 22.783
  +AA FPKM: 112.763 FPKM
Gene MX1, Qvalue 0.026353098
  Log2 (+AA/−AA): 2.341
Gene MX1, −AA FPKM 41.507
  +AA FPKM: 211.673 FPKM
Gene MYL9, Qvalue 9.98E−29
  Log2 (+AA/−AA): 4.530
Gene MYL9, −AA FPKM 0.550
  +AA FPKM: 12.580 FPKM
Gene NUPR1, Qvalue 8.23E−04
  Log2 (+AA/−AA): 3.257
Gene NUPR1, −AA FPKM 1.457
  +AA FPKM: 14.303 FPKM
Gene OLR1, Qvalue 0.030792442
  Log2 (+AA/−AA): 2.719
Gene OLR1, −AA FPKM 1.523
  +AA FPKM: 10.067 FPKM
Gene ORM1, Qvalue 1.09E−20
  Log2 (+AA/−AA): 4.863
Gene ORM1, −AA FPKM 3.003
  +AA FPKM: 88.200 FPKM
Gene P2RY11, Qvalue 3.25E−10
  Log2 (+AA/−AA): 3.498
Gene P2RY11, −AA FPKM 0.970
  +AA FPKM: 10.823 FPKM
Gene PLA2G7, Qvalue 0.030445407
  Log2 (+AA/−AA): 2.759
Gene PLA2G7, −AA FPKM 12.103
  +AA FPKM: 86.573 FPKM
Gene SIGLEC1, Qvalue 0.003740839
  Log2 (+AA/−AA): 2.998
Gene SIGLEC1, −AA FPKM 3.223
  +AA FPKM: 26.273 FPKM
Gene SLC7A7, Qvalue 6.15E−21
  Log2 (+AA/−AA): 2.460
Gene SLC7A7, −AA FPKM 9.010
  +AA FPKM: 49.703 FPKM
Gene SLC15A3, Qvalue 4.84E−06
  Log2 (+AA/−AA): 2.417
Gene SLC15A3, −AA FPKM 9.753
  +AA FPKM: 52.340 FPKM
Gene SPON2, Qvalue 6.39E−10
  Log2 (+AA/−AA): 2.497
Gene SPON2, −AA FPKM 4.037
  +AA FPKM: 22.397 FPKM
Gene ST14, Qvalue 1.06E−29
  Log2 (+AA/−AA): 2.575
Gene ST14, −AA FPKM 1.920
  +AA FPKM: 11.390 FPKM
Gene TLR7, Qvalue 1.13E−20
  Log2 (+AA/−AA): 2.326
Gene TLR7, −AA FPKM 2.483
  +AA FPKM: 12.300 FPKM
Gene USP18, Qvalue 0.029120385
  Log2 (+AA/−AA): 3.335
Gene USP18, −AA FPKM 2.210
  +AA FPKM: 22.600 FPKM
Gene XCR1, Qvalue 2.80E−29
  Log2 (+AA/−AA): 2.881
Gene XCR1, −AA FPKM 1.363
  +AA FPKM: 10.463 FPKM
Table 3, gene FCER1G, Qvalue 0.03
  log2 (+AA/−AA): 0.509
